Legend:
GK rats [1] = experiment: Improving effects on impaired glucose tolerance: oral glucose load in fasted GK rats, AUC of blood glucose; type: in vivo, rat; conditions: 2 g/kg glucose 1 hour later
Protocol: 6-week-old GK rats of (Charles River Japan, Inc.) which show IGT symptoms, but not diabetes mellitus, were fasted overnight. Compound A was orally administered at dosages of 10, 20 or 40 mg/kg. Two gram per kilogram of 50% (w/w) glucose solution was orally administered 1 hour after the administration of Compound A. The rats in the control group were administered orally 2 g/kg of 50% (w/w) glucose solution only.
The blood was collected from the tail vein just before and 0.5, 1, 2 and 4 hours after the glucose administration. Blood glucose level was determined by electric potential measurement method based on a glucose oxidase immobilized electrode using Glucoloader GXT (A&T Corp.).
On the abscissas, the time after the administration of Compound A was plotted, and on the ordinate, the blood glucose level of each individual was plotted. Each point was drawn with a straight line. The areas under the curves (AUCs) for the blood glucose levels of the graph obtained were calculated.
Using the areas under the curves (AUCs) for the blood glucose levels, the average value and standard error of each group were calculated. […]
The blood was collected from the tail vein just before and 0.5, 1 and 2 hours after the glucose administration. Blood glucose level was determined by electric potential measurement method based on a glucose oxidase immobilized electrode using Glucoloader GXT (A&T Corp.). […]

GK rats [2] = experiment: Preventative effects on diabetes mellitus in GK rats prior to the crisis of diabetes (drug mixed in food, 8 weeks); type: in vivo, rat
Excerpt: 6-week-old GK rats (Charles River Japan, Inc.) which were prior to the crisis of diabetes mellitus, were used. Compound A was mixed with food powder for the rat (F2, Funabashi Farm Co.,) at concentrations of 0.04%, 0.2% and 1.0% (w/w) and was orally administered to 4-6 rats per group for 8 weeks ad libitum (the mean amount of food intake per rat: 17.3 g/day).
The rats in the control group were fed with only food powder.
Blood from each rat was collected from the tail vein every 2 weeks, and the blood glucose level, plasma lactate level and plasma triglyceride level were determined. Blood glucose level was determined by electric potential measurement method based on glucose oxidase immobilized electrode using Glucoloader GXT (A&T Corp.). Plasma lactate level was determined using a spectrophotometric method with Lactate Reagent (Sigma-Aldrich Japan K. K.), and plasma triglyceride level was determined using a spectrophotometric method with Triglyceride E Test Wako (Wako Pure Chemical Industries, Ltd.). When the blood was collected after the drug administration period and the drug withdrawal period for 2 weeks, glycosylated hemoglobin ratio was also determined with DCA-2000 (Bayer Medical Co., Ltd.).

patients = patients treated with metformin; N Engl J Med 346, 393-403 (2002); cited from earlier work

## CCOC(=O)[C@H](C)NP(=O)(N[C@@H](C)C(=O)OCC)c1ccc(-c2nc(N)sc2CC(C)C)o1 [Compound A, 2-amino-5-isobutyl-4-{2-[5-(N,N′-bis((S)-1-ethoxycarbonyl)ethyl)phosphonamido]furanyl}thiazole]
GK rats [1]; GK rats fasted overnight, 10, 20 or 40 mg/kg oral, blood to 4 hours, FIG. 5
  AUCs of the blood glucose levels: decreased by the treatment of Compound A in a dose-dependent manner
GK rats [2]; 6-week-old GK rats, 0.04%, 0.2% and 1.0% (w/w) in food, oral, 8 weeks, FIG. 1
  increase in the blood glucose level: inhibited in a dose-dependent manner
GK rats [2]; GK rats, after 8 weeks of 0.04%, 0.2% and 1.0% (w/w) in food, FIG. 2
  glycosylated hemoglobin ratio: decreased in a dose-dependent manner
GK rats [2]; GK rats, all the groups examined
  gastrointestinal symptoms such as diarrhea: no animal suffered gastrointestinal symptoms such as diarrhea
GK rats [2]; GK rats, drug withdrawal period 2 weeks, FIG. 1
  blood glucose level after the drug administration period was terminated: attained the same maximum level as that in the control group
GK rats [2]; GK rats, drug withdrawal period 2 weeks, FIG. 2
  glycosylated hemoglobin ratio after withdrawal of administration: increased to the same level as that in the control group
GK rats [2]; GK rats, during the administration period, FIG. 3
  plasma triglyceride level: not increased as much as those in the control rats or was prevented from increase
GK rats [2]; GK rats, during the administration period, versus control group, FIG. 4
  plasma lactate level: not significantly different from the control group

## CCOc1cc2ncnc(Nc3cccc(-c4csc(C)n4)c3)c2cc1OCC [Compound B, (6,7-diethoxy-quinazolin-4-yl)-[3-(2-methyl-thiazol-4-yl)phenyl]amine]
GK rats [1]; GK rats fasted overnight, 100 mg/kg or 300 mg/kg oral, blood to 2 hours, FIG. 6
  AUCs of the blood glucose levels: decreased by the treatment of Compound B in a dose-dependent manner

## CN(C)C(=N)N=C(N)N [metformin]
patients
  patients with gastrointestinal symptoms such as diarrhea: approximately 80%
